Reference: patent US11345659B2, “Pipecolic esters for inhibition of the proteasome” (THE BOARD OF REGENTS OF THE UNIVERSY OF TEXAS SYSTEM, priority 2018, dated 2022)

How the values were obtained:
[1] = molecular target: T1, native human 20 S core proteasome (Homo sapiens, UniProt P25787+P25789); test: AFM imaging of gate conformers of 20 S proteasome
T1 construct: purified from erythrocytes; purchased Enzo Life Sciences, Inc. (Farmingdale, N.Y.); host or cells: human erythrocytes
Protocol: The single molecule imaging of the 20 S proteasome was carried out as previously described, with a scanner E of the Multimode Nanoscope IIIa (Bruker Inc) (Gaczynska and Osmulski (2009) Atomic Force Microscopy as a Tool to Study the Proteasome Assemblies; Osmulski et al. (2009) Structure 17(8): 1137-1147. Available from http://www.scopus.com/inward/record.url?eid=2-s2.0-68149164657&partnerID=40&md5=dc5e413998472b20d822db9458de1955). In short, the proteasomes were deposited and electrostatically attached to a muscovite mica substrate, covered with imaging buffer (5 mM Tris/HCl, pH 7) and scanned in tapping mode in fluid using cantilevers with the spring constant of 0.35 N/m from the SNL (Sharp Nitride Lever) probes (Bruker Inc.) tuned to 9-10 kHz. Gentle scanning conditions with the amplitude setpoint in the range of 1.5-2.0V, drive voltage of 300-500 mV and 3.05 Hz scanning rate were used. Scans of 1 μm^2 fields (512×512 pixels) contained height-mode images of several dozens of top-view (“standing”) 20 S proteasome molecules. The gate status was deduced from a profile of raw height values of pixels measured by a probe scanning across the single proteasome particles. The proteasome a face that included the gate was completely rendered by a six-pixel (11-12 nm) scan-line. If the α face scan-line presented a central dip (a local minimum), the particle was classified as containing the open gate. If a plot of height values presented a concave function without a local minimum, the particle was classified as an intermediate conformer. If the function was convex, the particle was classified as containing the closed gate. The “events” of gate opening/closing were analyzed for scans of distinct particles as well as multiple scans of the same particles.
Next, AFM imaging of the native human 20 S core proteasome treated with 10 μM compound 3 was performed to get insight into the putative effects of the compound on the conformation of the α face in the single molecule fashion. In the in-liquid tapping mode AFM method, the outer shape of the α face is monitored by the ultra-sharp probe interacting […] with the protein molecule mostly by van der Waals forces (Gaczynska and Osmulski (2008) Methods Cell Biol. 90: 39-60). […] Treatment with 10 μM of rapamycin shifted the conformational equilibrium of the 20 S core from about 75% to about 50% of closed-gate molecules (Osmulski and Gaczynska (2013) Molecular pharmacology 84: 104-113). An apparent similar shift was induced by compound 3, when the partition of closed conformers dropped from 73±1% (n=4 experiments, 90 events of gate opening/closing) to 45±11% (n=6 experiments, 218 events). Moreover, upon additional refined analysis of “not closed” conformers, it was possible to distinguish the presumably open-gate forms from intermediate forms.
The putative binding site of compound 3 in the α ring pocket, identified by molecular modeling (FIG. 2) and biochemical data (FIG. 4), led to the examination of whether the inhibitor-induced conformational changes in a face gate dynamics. For this purpose, imaging of native 20 S proteasomes was employed using a previously established method of atomic force microscopy (AFM). In this method, topography of the α face of buffer-submerged proteasomes that stand on their opposite a face is rendered in real time by the ultra-sharp probe. A tip of the probe interacts with the molecules mostly by van der Waals forces (Gaczynska and Osmulski (2011) Methods Mol. Biol. 736: 117-32). The distribution of conformation types of a face is routinely accessed with sequential scans of fields of multiply randomly distributed proteasomes. Alternatively, consecutive single scan lines representing the gate status of individual particles are collected. The particles are classified as closed-gate if their a face is smooth and regularly concave (FIG. 5). […]

[2] = test system: human prostate cancer PC3 cells; test: Efficacy study in nude mice xenografted with PC3 cells; type: in vivo; settings: 10 mg/kg intra-tumorally
Protocol: The efficacy study was performed with mice xenografted with human cultured androgen-resistant prostate cancer PC3 cells. To assure efficient monitoring of tumor growth and dissemination, the cells expressing green fluorescent protein (GFP) and luciferine were used for xenografting (Bioware Brite PC3-RedFLuc-GFP). The study involved […] nude mice. Tumor-growing mice were treated intra-tumorally (IT) with the vehicle (dimethylsulfoxide; DMSO; 8 control mice) or with 10 mg/kg of compound 3 (10 mice). Injections were carried on Mondays, Wednesdays, and Fridays. To assure accurate assessment of the tumor size, at the time of first and last treatments the mice were injected with luciferine (substrate for luciferase) and the total intensity of fluorescent product was recorded by the Xenogen IVIS Spectrum small animal imager. […] The color scale from blue (lowest) through green, yellow and red (highest) corresponds to the intensity of fluorescence emitted from the tumor and thus represents the total mass of live cancer cells. Referring to FIG. 8 right panel, median ratios of last-to-first total tumor fluorescence values are shown. Apparently, the median tumor size in controls increased nearly three-fold (ratio=3.05), whereas in the treated cohort a tumor shrinkage was recorded instead (ratio=0.62).

COc1cc(CCCOC(=O)[C@@H]2CCCCN2C(=O)OCc2ccccc2)cc(OC)c1OC [Compound 3, 1-benzyl 2-(3-(3,4,5-trimethoxyphenyl)propyl) (S)-piperidine-1,2-dicarboxylate]
abundance of gate conformers ([1]; 100 nM): increased the abundance of closed-gate conformers and rendered the open-gate forms nearly undetectable
contribution of open-gate proteasomes ([1]; 1 μM): only about a half of that observed in the control particles
particles in closed-gate conformation ([1]; 10 μM): less than a half of the particles were in the closed-gate conformation
contribution of open-gate and intermediate forms ([1]; 10 μM, compared to control): increased about twice
partition of closed conformers ([1]; 10 μM, n=6 experiments, 218 events, control 73±1%): 45±11%
number of intermediate forms ([1]; 10 μM, versus control): increased significantly
partition of open forms ([1]; 10 μM, versus control): remained remarkably steady
growth of xenografted tumor [2]: attenuated the growth of xenografted tumor
median ratio of last-to-first total tumor fluorescence ([2]; Mon/Wed/Fri, control ratio 3.05): 0.62
